Two compounds from patent US4504480A, “Pentacyclic compounds” (Beecham Group p.l.c., priority 1982, dated 1985) can be followed below.

This test concerns the target T1, α2-adrenoceptors (Rattus norvegicus, UniProt P22909).
T1 construct: isolated rat-brain synaptic membrane fragments; from tissue; host or cells: rat brain, synaptic membrane fragments
T1 sequence (P22909 1-465): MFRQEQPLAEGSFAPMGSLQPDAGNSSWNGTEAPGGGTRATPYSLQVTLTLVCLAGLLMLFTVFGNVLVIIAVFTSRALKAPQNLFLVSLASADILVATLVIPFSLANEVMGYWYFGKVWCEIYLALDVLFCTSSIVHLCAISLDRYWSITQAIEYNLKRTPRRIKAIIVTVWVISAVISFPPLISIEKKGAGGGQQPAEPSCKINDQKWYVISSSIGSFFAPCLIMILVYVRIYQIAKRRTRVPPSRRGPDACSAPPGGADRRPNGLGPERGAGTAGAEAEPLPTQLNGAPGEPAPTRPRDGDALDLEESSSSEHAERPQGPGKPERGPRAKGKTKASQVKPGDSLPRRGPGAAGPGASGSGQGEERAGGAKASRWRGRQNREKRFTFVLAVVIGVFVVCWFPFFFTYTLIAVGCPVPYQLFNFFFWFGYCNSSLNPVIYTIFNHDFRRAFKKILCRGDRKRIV
As to the kind of experiment: inhibition of [3H]-clonidine binding to isolated rat-brain synaptic membrane fragments. Particulars: from IC50 by Cheng-Prusoff equation. From the text: Blockade of presynaptic α2 -adrenoceptors on noradrenergic neurones effects an increase in intrasynaptic noradrenaline, and thus in the central nervous system could be expected to have an antidepressant effect. [^3 H]-Clonidine binds to α2 -adrenoceptor sites and inhibition of this binding correlates with the blockade of α2 -adrenoceptors. In vitro inhibition by some of the present compounds of the binding of [^3 H]-clonidine to isolated rat-brain synaptic membrane fragments was therefore determined to provide an indication of antidepressant activity. This was carried out using standard biochemical binding study techniques, by the method of Maggi et al, Eur. J. Pham. 1980, 61, 91. IC50 values were obtained from log [dose] against % inhibition curves; Ki values were determined using the Cheng-Prusoff equation.

For the compound `CN1CCN2c3ccccc3Cc3cccc4c3[C@@H]2[C@H]1C4` (relative stereo) [Example I, trans-12-Methyl-1,10,11,12,12a,12b-hexahydro-5H-9b,12-diazabenzo[5,6]cyclohepta[1,2,3,4-def]fluorene], the affinity, expressed as Ki, was 88 nM.

As for `CN1CCN2c3ccccc3Cc3cccc4c3[C@@H]2[C@H]1CC4` (relative stereo) [Example II, trans-13-methyl-1,2,6,11,12,13,13a,13b-octahydro-10b13-diazabenzo[gh]pleiadene], the Ki (as a rule, a dissociation constant, usually derived from enzyme kinetics or from competition with a known ligand) amounted to 169 nM.
